Laboratory results published in ChEMBL document CHEMBL3875173, “Phenyltetrazolyl-phenylamides: Substituent impact on modulation capability and selectivity toward the efflux protein ABCG2 and investigation of interaction with the transporter” (Eur J Med Chem, 2016).

Key:
[1] = target: T1, ABCG2 (Homo sapiens, UniProt Q9UNQ0); experiment: Inhibition of recombinant human GFP-fused ABCG2 expressed in MDCK2 cells assessed as reduction in Hoechst 33342 efflux at 10 uM preincubated for 30 mins followed by Hoechst 33342 addition measured immediately at 60 sec time interval for 120 mins by fluorescence assay relative to XR9577; assay type: cell-based, MDCK-II; settings: MDCK2 cells expressing recombinant human GFP-fused ABCG2, probe Hoechst 33342, read-out: Imax
T1 sequence (Q9UNQ0 whole entry): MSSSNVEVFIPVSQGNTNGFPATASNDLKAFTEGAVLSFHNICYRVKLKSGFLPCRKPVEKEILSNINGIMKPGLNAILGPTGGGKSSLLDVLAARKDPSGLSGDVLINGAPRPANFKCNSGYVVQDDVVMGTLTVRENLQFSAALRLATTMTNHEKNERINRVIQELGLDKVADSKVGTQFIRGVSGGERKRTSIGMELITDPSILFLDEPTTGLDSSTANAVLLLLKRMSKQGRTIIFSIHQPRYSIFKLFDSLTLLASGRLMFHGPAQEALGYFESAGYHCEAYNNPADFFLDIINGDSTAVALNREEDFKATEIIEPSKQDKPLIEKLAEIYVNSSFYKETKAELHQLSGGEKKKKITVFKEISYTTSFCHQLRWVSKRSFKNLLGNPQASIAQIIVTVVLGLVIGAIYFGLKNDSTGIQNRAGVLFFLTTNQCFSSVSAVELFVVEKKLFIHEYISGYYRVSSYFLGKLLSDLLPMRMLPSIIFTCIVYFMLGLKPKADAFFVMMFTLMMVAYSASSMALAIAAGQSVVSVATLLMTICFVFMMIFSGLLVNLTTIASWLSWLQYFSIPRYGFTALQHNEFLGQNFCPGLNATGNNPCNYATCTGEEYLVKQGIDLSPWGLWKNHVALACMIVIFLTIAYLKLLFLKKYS

[2] = target: ATP-dependent translocase ABCB1 (Homo sapiens, UniProt P08183); experiment: Inhibition of ABCB1 in human A2780/ADR cells assessed as reduction in calcien-AM efflux preincubated for 30 mins followed by calcien-AM addition measured immediately at 60 sec time interval for 60 mins by fluorescence assay; assay type: cell-based
Chain of ATP-dependent translocase ABCB1 (P08183 whole entry, the tested form may be a part): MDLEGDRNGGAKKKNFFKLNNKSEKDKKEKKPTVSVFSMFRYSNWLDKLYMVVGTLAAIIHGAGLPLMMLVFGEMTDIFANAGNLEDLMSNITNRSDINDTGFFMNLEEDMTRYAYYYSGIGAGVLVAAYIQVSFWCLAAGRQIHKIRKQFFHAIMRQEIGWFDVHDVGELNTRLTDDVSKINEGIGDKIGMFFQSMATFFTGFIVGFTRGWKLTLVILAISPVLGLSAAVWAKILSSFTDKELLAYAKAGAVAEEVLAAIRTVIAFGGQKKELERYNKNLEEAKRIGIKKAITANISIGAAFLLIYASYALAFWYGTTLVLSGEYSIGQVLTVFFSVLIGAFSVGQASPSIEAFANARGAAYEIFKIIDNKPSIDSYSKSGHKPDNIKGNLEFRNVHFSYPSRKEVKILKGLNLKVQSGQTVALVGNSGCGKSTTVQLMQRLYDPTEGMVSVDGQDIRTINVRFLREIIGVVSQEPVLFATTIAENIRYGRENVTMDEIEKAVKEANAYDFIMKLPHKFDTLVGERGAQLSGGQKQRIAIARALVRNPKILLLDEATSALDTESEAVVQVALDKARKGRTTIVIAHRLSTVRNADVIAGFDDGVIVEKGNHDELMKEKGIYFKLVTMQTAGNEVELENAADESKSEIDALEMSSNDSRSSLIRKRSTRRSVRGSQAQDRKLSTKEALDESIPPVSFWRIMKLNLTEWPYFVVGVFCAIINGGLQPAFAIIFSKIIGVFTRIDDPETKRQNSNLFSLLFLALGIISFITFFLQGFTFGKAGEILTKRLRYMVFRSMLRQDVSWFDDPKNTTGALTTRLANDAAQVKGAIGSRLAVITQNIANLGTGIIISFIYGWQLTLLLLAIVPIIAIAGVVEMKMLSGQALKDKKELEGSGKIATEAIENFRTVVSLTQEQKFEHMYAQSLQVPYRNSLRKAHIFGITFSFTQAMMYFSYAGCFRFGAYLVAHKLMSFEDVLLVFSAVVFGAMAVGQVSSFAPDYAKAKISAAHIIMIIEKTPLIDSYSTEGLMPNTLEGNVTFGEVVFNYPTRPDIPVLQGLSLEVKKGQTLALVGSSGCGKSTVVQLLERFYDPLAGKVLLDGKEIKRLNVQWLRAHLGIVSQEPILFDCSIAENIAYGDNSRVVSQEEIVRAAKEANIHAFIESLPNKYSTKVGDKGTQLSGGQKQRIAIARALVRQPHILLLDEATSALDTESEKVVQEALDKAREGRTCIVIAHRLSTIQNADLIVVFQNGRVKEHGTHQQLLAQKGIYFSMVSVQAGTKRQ

[3] = target: T2, Broad substrate specificity ATP-binding cassette transporter ABCG2 (Homo sapiens, UniProt Q9UNQ0); experiment: Inhibition of recombinant human GFP-fused ABCG2 expressed in MDCK2 cells assessed as reduction in pheophorbide A efflux preincubated for 30 mins followed by pheophorbide A addition measured after 2 hrs by flow cytometry; assay type: cell-based, MDCK-II
T2 sequence (Q9UNQ0 whole entry): T1 sequence (Q9UNQ0 whole entry)

[4] = target: T2, Broad substrate specificity ATP-binding cassette transporter ABCG2; experiment: Inhibition of recombinant human GFP-fused ABCG2 expressed in MDCK2 cells assessed as reduction in Hoechst 33342 efflux preincubated for 30 mins followed by Hoechst 33342 addition measured immediately at 60 sec time interval for 120 mins by fluorescence assay; assay type: cell-based, MDCK-II
[5] = target: T1, ABCG2; experiment: Inhibition of recombinant human GFP-fused ABCG2 expressed in MDCK2 cells assessed as reduction in pheophorbide A efflux at 10 uM preincubated for 30 mins followed by pheophorbide A addition measured after 2 hrs by flow cytometry relative to XR9577; assay type: cell-based, MDCK-II; settings: MDCK2 cells expressing recombinant human GFP-fused ABCG2, probe pheophorbide A, read-out: Imax
[6] = target: T3, ABCB1 (Homo sapiens, UniProt P08183); experiment: Inhibition of ABCB1 in human A2780/ADR cells assessed as reduction in calcien-AM efflux at 10 uM preincubated for 30 mins followed by calcien-AM addition measured immediately at 60 sec time interval for 60 mins by fluorescence assay relative to cyclosporine A; assay type: cell-based; settings: probe calcein-AM (printed calcien-AM), read-out: Imax
T3 sequence (P08183 whole entry, the tested form may be a part): as above

[7] = target: T2, Broad substrate specificity ATP-binding cassette transporter ABCG2; experiment: Competitive inhibition of recombinant human GFP-fused ABCG2 expressed in MDCK2 cells assessed as reduction in Hoechst 33342 efflux at 0.01 to 0.1 uM preincubated for 30 mins followed by addition of varying levels of Hoechst 33342 by Lineweaver-Burk plot analysis; assay type: cell-based; settings: mdck-ii
[8] = target: T2, Broad substrate specificity ATP-binding cassette transporter ABCG2; experiment: Non-competitive inhibition of recombinant human GFP-fused ABCG2 expressed in MDCK2 cells assessed as reduction in pheophorbide A efflux at 0.0178 to 0.1 uM preincubated for 30 mins followed by addition of varying levels of pheophorbide A by Lineweaver-Burk plot analysis; assay type: cell-based; settings: mdck-ii
[9] = target: T3, ABCB1; experiment: Potency index, ratio of cyclosporine A IC50 to compound IC50 for ABCB1 in human A2780/ADR cells; assay type: cell-based; settings: read-out: Ratio IC50
[10] = target: T1, ABCG2; experiment: Potency index, ratio of Ko143 IC50 to compound IC50 for recombinant human GFP-fused ABCG2 expressed in MDCK2 cells assessed as reduction in pheophorbide A efflux; assay type: cell-based; settings: MDCK2 cells expressing recombinant human GFP-fused ABCG2, probe pheophorbide A, read-out: Ratio IC50
[11] = target: T1, ABCG2; experiment: Potency index, ratio of Ko143 IC50 to compound IC50 for recombinant human GFP-fused ABCG2 expressed in MDCK2 cells assessed as reduction in Hoechst 33342 efflux; assay type: cell-based; settings: MDCK2 cells expressing recombinant human GFP-fused ABCG2, probe Hoechst 33342, read-out: Ratio IC50

Row | Compound | Emax at 2 h, 10 µM [1] [%] | IC50 [2] [µM] | IC50 [3] [nM] | IC50 [4] [nM] | Emax at 2 h, 10 µM [5] [%] | inhibition at 1 h, 10 µM [6] [%] | inhibition (INH) [7] | inhibition (INH) [8] | selectivity ratio [9] | selectivity ratio [10] | selectivity ratio [11]
1 | COc1ccc(C(=O)Nc2ccccc2-c2nnn(-c3ccc(OC)cc3)n2)cc1 | 100 | 2.88 | 300 | 199 | 92 | ≤ 25 | – | – | – | – | –
2 | CCCc1ccc(C(=O)Nc2ccccc2-c2nnn(-c3ccccc3)n2)cc1 | 100 | 8.14 | 96.6 | 212 | 85 | ≤ 25 | – | – | – | – | –
3 | CCCc1ccc(C(=O)Nc2ccccc2-c2nnn(-c3ccc(SC)cc3)n2)cc1 | 76 | – | 679 | 783 | 69 | – | – | – | – | – | –
4 | CCOc1ccc(-n2nnc(-c3ccccc3NC(=O)c3ccccc3[N+](=O)[O-])n2)cc1 | 72 | – | – | 308 | – | – | – | – | – | – | –
5 | CSc1ccc(-n2nnc(-c3ccccc3NC(=O)c3ccccc3[N+](=O)[O-])n2)cc1 | 91 | 9.78 | 117 | 221 | 77 | ≤ 25 | – | – | – | – | –
6 | COc1ccc(C(=O)Nc2ccccc2-c2nnn(-c3ccccc3)n2)cc1 | 101 | 5.47 | 208 | 200 | 93 | ≤ 25 | Active | Active | – | – | –
7 | COc1ccc(-n2nnc(-c3ccccc3NC(=O)c3ccccc3)n2)cc1OC | 104 | 4.03 | 212 | 230 | 95 | ≤ 25 | – | – | – | – | –
8 | CSc1ccc(-n2nnc(-c3ccccc3NC(=O)c3ccc(C(F)(F)F)cc3)n2)cc1 | – | – | – | > 10000 | – | – | – | – | – | – | –
9 | O=C(Nc1ccccc1-c1nnn(-c2ccccc2)n1)c1ccc([N+](=O)[O-])cc1 | 60 | – | 321 | 150 | 69 | – | – | – | – | – | –
10 | CCCc1ccc(C(=O)Nc2ccccc2-c2nnn(-c3ccc(O)cc3)n2)cc1 | 106 | 0.434 | 129 | 204 | 107 | ≤ 25 | – | – | 3 | – | –
11 | COc1ccc(-n2nnc(-c3ccccc3NC(=O)c3ccccc3[N+](=O)[O-])n2)cc1 | 76 | 6.2 | 311 | 266 | 61 | ≤ 25 | – | – | – | – | –
12 | COc1ccc(C(=O)Nc2ccccc2-c2nnn(-c3ccccc3)n2)cc1OC | 102 | – | 511 | 832 | 86 | – | – | – | – | – | –
13 | CCCc1ccc(C(=O)Nc2ccccc2-c2nnn(-c3ccc(OC(=O)c4ccc(CCC)cc4)cc3)n2)cc1 | – | – | – | > 10000 | – | – | – | – | – | – | –
14 | COc1ccc(-n2nnc(-c3ccccc3NC(=O)c3ccc(C(F)(F)F)cc3)n2)cc1OC | 80 | 10.2 | – | 330 | – | ≤ 25 | – | – | – | – | –
15 | CCOc1ccc(-n2nnc(-c3ccccc3NC(=O)c3ccc(OC)cc3)n2)cc1 | 50 | – | – | 793 | – | – | – | – | – | – | –
16 | CC(C)c1ccc(-n2nnc(-c3ccccc3NC(=O)c3ccc(C(F)(F)F)cc3)n2)cc1 | – | – | – | > 10000 | – | – | – | – | – | – | –
17 | COc1ccc(C(=O)Nc2ccccc2-c2nnn(-c3ccc(Oc4ccccc4)cc3)n2)cc1 | – | – | – | > 10000 | – | – | – | – | – | – | –
18 | O=C(Nc1ccccc1-c1nnn(-c2ccccc2)n1)c1ccc(C(F)(F)F)cc1 | 100 | – | 3630 | 4390 | 100 | – | – | – | – | – | –
19 | COc1ccc(C(=O)Nc2ccccc2-c2nnn(-c3ccc(OC)c(OC)c3)n2)cc1 | 100 | 3.2 | – | 319 | – | ≤ 25 | – | – | – | – | –
20 | COc1ccc(C(=O)Nc2ccccc2-c2nnn(-c3ccc(Cl)cc3)n2)cc1 | 59 | – | – | 223 | – | – | – | – | – | – | –
21 | O=C(Nc1ccccc1-c1nnn(-c2ccccc2)n1)c1ccccc1[N+](=O)[O-] | 57 | – | 458 | 280 | 76 | < 10 | – | – | – | – | –
22 | CCCc1ccc(C(=O)Nc2ccccc2-c2nnn(-c3ccc(Oc4ccccc4)cc3)n2)cc1 | – | – | – | > 10000 | – | – | – | – | – | – | –
23 | COc1ccc(C(=O)Nc2ccccc2-c2nnn(-c3ccc(SC)cc3)n2)cc1 | 100 | 4.2 | 251 | 132 | 85 | ≤ 25 | – | – | – | – | –
24 | COc1ccc(C(=O)Nc2ccccc2-c2nnn(-c3ccc(C(C)C)cc3)n2)cc1 | 97 | 19.4 | 131 | 136 | 95 | ≤ 25 | – | – | – | – | –
25 | COc1ccc(-n2nnc(-c3ccccc3NC(=O)c3cccc([N+](=O)[O-])c3)n2)cc1 | 57 | – | 247 | 168 | 56 | – | – | – | – | – | –
26 | CSc1ccc(-n2nnc(-c3ccccc3NC(=O)c3ccc([N+](=O)[O-])cc3)n2)cc1 | – | – | – | > 10000 | – | – | – | – | – | – | –
27 | O=C(Nc1ccccc1-c1nnn(-c2ccc(Cl)cc2)n1)c1ccc([N+](=O)[O-])cc1 | – | – | – | > 10000 | – | – | – | – | – | – | –
28 | O=C(Nc1ccccc1-c1nnn(-c2ccccc2)n1)c1cccc([N+](=O)[O-])c1 | 91 | 9.4 | 123 | 127 | 98 | ≤ 25 | – | – | – | – | –
29 | O=C(Nc1ccccc1-c1nnn(-c2ccccc2)n1)c1ccccc1 | 90 | 21.8 | 64 | 66.9 | 109 | ≤ 25 | – | – | – | 3 to 4 | 3 to 4
